This is an account of results in patent publication US20050220726A1, “Use of sugar esters in cosmetic and/or pharmaceutical preparations” (priority 2003, published 2005).

What all share (format): cell-based
The subject of experiment [1] is human leukaemic granulocytes. Briefly: Anti-inflammatory activity: respiratory burst of granulocytes (zymosan, luminol). The following applies: + stimulation (zymosan), blank + stimulation = 100. An excerpt:
In the course of cutaneous inflammation, leucocytes, such as the polymorphonuclear neutrophilic granulocytes (PMNs) for example, are stimulated by peptides, such as cytokines for example, to emit messenger substances, such as leucotriene for example, which are released from activated or necrotic cells in the dermis. These activated PMNs release not only pro-inflammatory cytokinins, leucotrienes and proteases, but also ROS, such as superoxides and hypochlorite anions for example, of which the function is to destroy penetrated pathogenic germs or fungi. This activity of the PMNs during the inflammation is known as so-called respiratory burst. To investigate to what extent the test extracts can prevent or reduce the respiratory burst, a cell line of human leukaemic granulocytes of these PMNs was incubated together with the test substances at 37° C. and 5% by vol. CO2. After the respiratory burst had been initiated by addition of a yeast extract (zymosan) to the cell solution, the release of superoxide anions was determined through their reaction with luminol.

The test system of experiment [2] is Propionibacterium acnes. Briefly: Agar dilution method (MIC determination). The following applies: 18 to 24 h at 37° C. The protocol:
(§1) The antibacterial activity of the test substances was tested by the diffusion method on agar plates or the agar dilution method. In this method, a round filter paper of defined diameter is first impregnated with the test solution and then applied to the surface of an agar plate inoculated beforehand with the test microorganisms. The size of the inhibition zones is then determined after defined times. In particular, it is possible by this method to determine the MIC (Minimum Inhibitory Concentration) as the lowest concentration of test substance with which complete inhibition of the microorganisms can be obtained. Agar dilution method (MIC determination). Various agars were prepared as described above, test substances were added in various concentrations, homogenized and dried. The Petri dishes were then inoculated with quantities of 2 μl of the bacterial suspension. After each drying step the Petri dishes were incubated for 18 to 24 h at 37° C. […] The results represent the averages of double determinations.

Experiment [3] has as its system Staphylococcus aureus. Briefly: Agar dilution method (MIC determination). The following applies: 18 to 24 h at 37° C. The protocol:
as §1
(In general: Agar dilution tests growth on a series of plates holding different concentrations.)

Experiment [4] concerns Staphylococcus epidermidis. In words: Agar dilution method (MIC determination). The following applies: 18 to 24 h at 37° C. On the procedure: as §1

Regarding Fructose caprate, in experiment [1] (conc. 0.003 % w/v), the Cell counts was found to be 97 %-rel and the ROS released turned out to be 87 %-rel. Besides, in experiment [1] (conc. 0.01 % w/v), the Cell counts is listed as 60 %-rel and the ROS released amounted to 5 %-rel. Also, the “MIC, Propionibacterium acnes” value in experiment [2] was 625 µg/mL. Also, the “MIC, Staphylococcus aureus” value in experiment [3] was found to be 1250 µg/mL. In experiment [4], the “MIC, Staphylococcus epidermidis” value stood at 1250 µg/mL.
